Laboratory results: US20040048243A1, “Methods and compositions for in vitro targeting” (priority 2003, published 2004)
No end group written: not given here.

Key:
CD13 = molecular target: T1, CD13 (Sus scrofa, UniProt P15145); assay: Peptide competition of angiostatin binding to CD13; conditions: up to 500 μg of peptide; not shown
T1 construct: purchased Sigma, St Louis, Mo; L-9776
T1 sequence (P15145 2-963 limits assumed): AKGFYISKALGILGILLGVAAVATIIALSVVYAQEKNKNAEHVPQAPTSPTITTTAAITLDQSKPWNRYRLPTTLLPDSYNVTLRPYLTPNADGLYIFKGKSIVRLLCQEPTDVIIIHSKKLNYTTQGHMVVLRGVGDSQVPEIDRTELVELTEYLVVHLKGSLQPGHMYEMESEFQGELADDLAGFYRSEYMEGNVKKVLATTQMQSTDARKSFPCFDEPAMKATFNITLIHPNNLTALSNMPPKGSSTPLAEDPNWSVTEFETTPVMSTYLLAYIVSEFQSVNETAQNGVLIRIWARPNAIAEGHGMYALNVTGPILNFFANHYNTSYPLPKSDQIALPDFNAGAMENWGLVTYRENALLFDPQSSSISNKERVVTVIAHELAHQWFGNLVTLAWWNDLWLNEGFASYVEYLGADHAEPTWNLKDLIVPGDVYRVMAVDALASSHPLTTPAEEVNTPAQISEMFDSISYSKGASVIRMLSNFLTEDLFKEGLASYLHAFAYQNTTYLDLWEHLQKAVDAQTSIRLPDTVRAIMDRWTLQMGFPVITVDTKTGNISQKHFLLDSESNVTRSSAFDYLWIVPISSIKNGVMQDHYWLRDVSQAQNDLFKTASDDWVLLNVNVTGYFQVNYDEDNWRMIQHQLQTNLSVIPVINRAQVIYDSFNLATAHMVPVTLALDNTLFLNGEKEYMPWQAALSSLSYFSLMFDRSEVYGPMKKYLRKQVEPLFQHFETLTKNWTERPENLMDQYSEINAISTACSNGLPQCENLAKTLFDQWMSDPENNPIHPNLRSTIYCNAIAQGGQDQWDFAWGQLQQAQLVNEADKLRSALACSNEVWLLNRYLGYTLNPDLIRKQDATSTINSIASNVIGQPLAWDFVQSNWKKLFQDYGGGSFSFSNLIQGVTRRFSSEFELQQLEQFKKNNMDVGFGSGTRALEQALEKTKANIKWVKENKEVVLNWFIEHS
Protocol: To assess protein-protein interactions, 100 ng/well of protein was coated in triplicate in 96-well plates. The plates were dried at 37° C., blocked with PBS and 3% BSA, and incubated with 10 μg/ml of rhAngiostatin in PBS+1% BSA for three hours at RT. The wells were washed three times with PBS, 3% BSA, 0.01% Tween 20 before incubation with anti-rhAngiostatin antibody (R&D Systems, Inc #AF226) at 1 μg/ml for 1 hour at RT. The wells were then washed three times with PBS, 3% BSA, 0.01% Tween 20 and incubated with […] anti-goat antibody. After washing 3 times with PBS, 0.01% Tween 20 and once with PBS, the wells were developed with p-nitrophenyl phosphate. Binding of alkaline phosphate conjugate was detected colorimetrically at […]. using an ELISA microplate reader.
Binding of angiostatin to CD13 was competitive with the NGR peptide (Burg et al., 1999) in a dose-dependent manner (not shown). Control experiments were run with the CARAC peptide (SEQ ID NO: 169) (not shown). Binding of angiostatin to CD13 was inhibited by more than 50% by 0.5 μg of NGR peptide, while binding was unaffected by up to 500 μg of CARAC peptide (SEQ ID NO: 169) (not shown).

[1] = tested on: cells infected by targeted phage vectors; assay: Enhancement of phage transduction by genotoxic agents or genetic trans-complementation; type: cell-based; conditions: genotoxic drug 10 μM added 36 hours after infection, analysis at 72 hours post-infection
Protocol: Semi-confluent cells were infected with 10^5 TU of phage per cell for 4 hours in serum free media, after which fresh medium supplemented with FCS was added (no phage were washed out or removed). In some experiments, a phage admixture of forward and reverse clones at 10^10 TU (forward/reverse molar ratio=1) was tested. Next, cells were incubated for 36 hours followed by the addition of genotoxic drugs (topotecan, 10 μM; cisplatin, 10 μM) or administration of UV radiation (15 J/m^2) with a cross-linker apparatus (UV Stratalinker Model 2400; Stratagene). At 72 hours post-infection, the cells were analyzed for transduction of a reporter gene (β-gal or GFP), and gene expression was normalized per cell number relative to controls.

[2] = tested on: antibodies present in the serum; assay: ELISA of sera on immobilized GST-fusion peptides; type: binding, human; conditions: for reactivity of serum against peptide in presence of the corresponding synthetic peptide: data not shown; for ELISA reactivity of patient serum with GST-fusion peptide: serum of the patients selected for the screenings, GST alone as negative control
Protocol: A 20 μg/ml solution of purified GST or GST-fusion proteins in 0.1M NaHCO3 was used to coat maxisorp multi-well plates (Nalge Nunc International Corporation) and incubated overnight at 4° C. The plates were blocked in a blocking buffer (4% milk, 2% casein, and 0.05% Tween-20) for 3-4 hours. A series of […] (1:100-1:1200) of sera from prostate cancer patients or healthy individuals was added and incubated for 1.5 hours and then washed five times with washing buffer (1% milk, 0.5% casein, and 0.025% Tween-20), followed by incubation at 4° C. with anti-human allaline phosphatase-conjugated antibodies (Gibco). The plates were then washed six times in washing buffer and developed using p-NPP (Sigma) as a substrate. An automatic ELISA plate reader (BIO-TEK instrument) recorded the results at OD405 nm.
Probabilities of survival for each group were estimated using the Kaplan-Meier method. A log-rank test was implemented in order to detect significant differences between the groups. Reactivity was considered to be detected if the ratio between GST-peptide and GST alone was greater or equal to two by the ELISA data. The Cox proportional hazards model was applied to analyze the effect of single and multiple risk factors in association with survival. Martingale residual plots were used to assess the proportional hazard assumption. P-values less than 0.05 were considered significant. All analyses were performed using SPLUS statistical software.
ELISA was performed to assess if the peptides could be specifically recognized by the antibodies present in the serum of the patients selected for the screenings. Peptides A (CHQKPWEC, SEQ ID NO: 58), B (CKDRFERC, SEQ ID NO: 59), and C (CNVSDKSC, SEQ ID NO: 60) were produced as GST-fusion proteins and immobilized onto microtiter wells, along with GST alone as a negative control. For each sample tested, a series of 100-fold dilutions was performed. […] The reactivity of each serum against peptides A, B and C was inhibited by the corresponding synthetic peptides (data not shown).
The reactivity profile of 91 sera obtained from clinically annotated prostate cancer patients was examined. Sera from 34 healthy individuals were also tested as a control for specificity. ELISA was performed to evaluate each serum using the three selected peptides (A, B, and C). The sera obtained from patients with prostate cancer were divided into three groups: 35 originated from patients with localized adenocarcinomas, 27 from patients with metastatic androgen-dependent disease, and 29 originated from patients with metastatic androgen-independent disease.

[3] = tested on: IgG from the ovarian cancer patient; assay: Binding of phage to IgGs isolated from ovarian cancer patient ascites or serum; design: species or system human
From the text: FIG. 22. Binding of phage containing the CVPELGHEC (SEQ ID NO: 271) and CFELGFELGC (SEQ ID NO: 272) targeting peptides to IgG's isolated from ovarian cancer patient #2 ascites, normal serum and BSA.
FIG. 23. Binding of phage containing the CVPELGHEC (SEQ ID NO: 271) targeting peptide to IgG's isolated from normal serum or from ascites of ovarian cancer patient #1 or #2. Control fd-tet phage contained no insert DNA.
FIG. 24. Binding of phage containing the CVPELGHEC (SEQ ID NO: 271) targeting peptide to IgG's isolated from serum of ovarian cancer patient #2, normal serum or BSA.
To select peptides specific to the ascitic fluid of ovarian cancer patients, IgGs from normal donor serum and ovarian cancer cell free ascitic fluid were bound to Protein agarose (Pierce) in the Pierce acetate, pH5 binding buffer. A two step biopanning procedure was employed in which the first step involved pre-clearing the phage peptide library by incubating it with IgGs isolated from normal donor serum in order to remove common antigens. This was followed by a second step where the pre-cleared library was used to screen cancer specific IgGs. Approximately 10^8 transforming units were added to the IgGs for the panning procedure. The resultant IgG-bound phage were recovered by eluting the phage with 0.1M glycine buffer, pH2.2, neutralizing the phage with 0.1 volume 1 M Tris-Cl, pH 9, and using the phage to infect stationary phase Escherichia coli strain K91. Serial dilutions of phage infected-K91 were plated onto tetracycline (40 μg/ml) LB agar plates and grown overnight at 37° C. Individual clones were picked, amplified, and precipitated for subsequent rounds of panning. A total of three rounds of selection were performed. Phage clones from the second and third rounds were subject to PCR followed by sequence analysis to evaluate enrichment of the most consistently binding peptide sequences.

[4] = tested on: tumor-associated antigens in tissue sections from bone marrow metastasis; assay: Immunohistological staining with antibodies against peptide C; type: binding, human; conditions: antibodies pre-incubated with GST-peptide C
Protocol: GST-fusion proteins containing the peptide sequence from patient C were coated on multi-well plates. After incubating the plates with the patient's serum, the plates were washed. The bound IgG antibodies were eluted with 50 μl of 0.1 M glycine buffer, pH 2.2, neutralized by addition of 10 μl 1 M Tris pH 9.0, and dialyzed in PBS overnight followed by concentration of the antibody using Centricon-30 (Millipore) filters. The purified antibody (500 μg) was coupled to biotin according to the manufacturer's instructions (Vector). The biotinylated antibody was analyzed by SDS-gel electrophoresis.
Paraffin sections from patient C were stained with purified biotinylated antibodies and peptide antibodies by immunoperoxidase detection using the Dako antigen retrieval kit and DAB as a substrate. All of the sections (4 μm) were counter-stained with hematoxylin. The biotinylated immunopurified antibodies were used at a dilution of 1:100. Peptide C antibodies and purified pre-immune antibodies were used at 0.01 μg/μl. For the inhibition staining, peptide C antibodies were pre-incubated for 30 minutes at room temperature with the GST-peptide C (500μg) prior to staining. Peptide antibodies were generated in rabbits and purified using a T-gel immunoglobulin purification kit and protein G column (Pierce).

CD13 (Aminopeptidase N) = assay: competition against rhAngiostatin binding to coated CD13, 0.5 µg peptide; not shown
bovine serum albumin = molecular target: T2, bovine serum albumin (bovine, UniProt P02769 25-607); assay: phage binding assay (FIG. 22)
T2 construct: control protein coated on wells; also called BSA
T2 sequence (P02769 25-607 limits assumed): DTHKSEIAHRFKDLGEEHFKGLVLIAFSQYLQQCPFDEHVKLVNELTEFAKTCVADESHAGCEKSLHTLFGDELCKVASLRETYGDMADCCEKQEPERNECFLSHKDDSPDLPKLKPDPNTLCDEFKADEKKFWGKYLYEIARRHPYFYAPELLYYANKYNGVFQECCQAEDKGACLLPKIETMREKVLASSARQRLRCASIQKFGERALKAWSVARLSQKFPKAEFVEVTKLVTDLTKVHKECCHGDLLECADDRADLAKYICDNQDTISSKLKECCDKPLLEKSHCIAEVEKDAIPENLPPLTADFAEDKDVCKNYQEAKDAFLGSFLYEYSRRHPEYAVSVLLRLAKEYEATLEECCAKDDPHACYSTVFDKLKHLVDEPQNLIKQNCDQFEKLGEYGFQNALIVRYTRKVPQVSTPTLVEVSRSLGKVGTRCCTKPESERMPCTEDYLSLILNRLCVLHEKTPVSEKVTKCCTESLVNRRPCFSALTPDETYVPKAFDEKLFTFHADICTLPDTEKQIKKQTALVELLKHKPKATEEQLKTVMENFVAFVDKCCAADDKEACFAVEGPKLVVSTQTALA

O=c1[nH]cc(F)c(=O)[nH]1 [CARAC peptide, CARAC]
effect on binding of angiostatin to CD13 (CD13): unaffected

N.N.[Cl][Pt][Cl] [cisplatin]
gene transduction by targeted phage vectors relative to controls [1]: several fold higher

CC[C@@]1(O)C(=O)OCc2c1cc1n(c2=O)Cc2cc3c(CN(C)C)c(O)ccc3nc2-1 [topotecan]
gene transduction by targeted phage vectors relative to controls [1]: several fold higher

CHQKPWEC [peptide A]
reactivity of serum against peptide in presence of the corresponding synthetic peptide [2]: inhibited
ELISA reactivity of patient serum with GST-fusion peptide [2]: strong reactivity

CKDRFERC [peptide B]
reactivity of serum against peptide in presence of the corresponding synthetic peptide [2]: inhibited
ELISA reactivity of patient serum with GST-fusion peptide [2]: strong reactivity

CNVSDKSC [peptide C]
reactivity of serum against peptide in presence of the corresponding synthetic peptide [2]: inhibited
ELISA reactivity of patient serum with GST-fusion peptide [2]: strong reactivity

CVPELGHEC
phage binding to IgG from ovarian cancer patient #2 ascites versus IgG from a normal patient or BSA ([3]; FIG. 22): very high selectivity
phage binding to IgGs from patient #2 compared to patient #1 or normal individuals ([3]; FIG. 23): much higher affinity
phage binding to serum from patient #2 compared to BSA or normal serum ([3]; FIG. 24): similarly high selectivity

GST-fusion protein containing peptide C: GST-fusion protein containing peptide C (CNVSDKSC; cysteine pairing not given here; also: fused to GST)
inhibition of anti-peptide C staining [4]: completely inhibited

NGR peptide (Burg et al., 1999)
percent inhibition of angiostatin binding to CD13 (CD13 (Aminopeptidase N)): > 50%

CVPELGHEC (cysteine pairing not given here; also: displayed on phage) [phage bearing the sequence CVPELGHEC]
binding result (bovine serum albumin): no binding
